Test: HPLC determination of degradation products in particles after SEDS processing
Assay type: physicochemical
Protocol: High-Perfomance Liquid Chromatography (HPLC)
Identification and quantification of degradation products were determined using HPLC technique.
The amount of degradation products was calculated from the chromatograms as area-%. Thus, 0.2% area-procent means that the amount of degradation products was 0.2% of the initial weight of the substance.
Particles were prepared in a modified SEDS equipment (Bradford Particle Design Limited, UK) from a solution, containing substance(s).
The solution and the antisolvent were introduced into a coaxial nozzle, which was located inside a pressure vessel. Under controlled pressure and temperature conditions, the antisolvent extracts the solvent from the solution droplets. The concentration of the solute in the droplets is thereby increased, leading to rapid particle formation. The particles were collected in a vessel, while the antisolvent and the extracted solvent emerged through a back pressure regulator.
The nozzle used was a two component nozzle, with an opening of 0.2 mm in diameter. In the two component nozzle the supercritical fluid passes through the inner passage, while the solution passes through the outer passage.

Degradation products	degradation products (HPLC)	SMILES
0.2 a %	0.2 area %	COc1ccc2[n-]c([S+]([O-])Cc3ncc(C)c(OC)c3C)nc2c1.COc1ccc2[n-]c([S+]([O-])Cc3ncc(C)c(OC)c3C)nc2c1.[Mg+2] (stereo not shown) [Experiment 1-2b, Omeprazole magnesium]
0.4 a %	0.4 area %	COc1ccc2[n-]c([S+]([O-])Cc3ncc(C)c(OC)c3C)nc2c1.COc1ccc2[n-]c([S+]([O-])Cc3ncc(C)c(OC)c3C)nc2c1.[Mg+2] (stereo not shown) [Experiment 1-3a, Omeprazole magnesium]
2.1 a %	2.1 area %	COc1ccc2[n-]c([S@@+]([O-])Cc3ncc(C)c(OC)c3C)nc2c1.COc1ccc2[n-]c([S@@+]([O-])Cc3ncc(C)c(OC)c3C)nc2c1.[Mg+2] [Experiment 2-1a, (S)-omeprazole magnesium]
0.2 a %	0.2 area %	COc1ccc2[n-]c([S+]([O-])Cc3ncc(C)c(OC)c3C)nc2c1.COc1ccc2[n-]c([S+]([O-])Cc3ncc(C)c(OC)c3C)nc2c1.[Mg+2] (stereo not shown) [Experiment 1-3b, Omeprazole magnesium]
0.1 a %	0.1 area %	COc1ccc2[n-]c([S+]([O-])Cc3ncc(C)c(OC)c3C)nc2c1.COc1ccc2[n-]c([S+]([O-])Cc3ncc(C)c(OC)c3C)nc2c1.[Mg+2] (stereo not shown) [Experiment 1-4b, Omeprazole magnesium]
0.3 a %	0.3 area %	COc1ccc2[n-]c([S@@+]([O-])Cc3ncc(C)c(OC)c3C)nc2c1.COc1ccc2[n-]c([S@@+]([O-])Cc3ncc(C)c(OC)c3C)nc2c1.[Mg+2] [Experiment 2-1b, (S)-omeprazole magnesium]
0.2 a %	0.2 area %	COc1ccc2[n-]c([S+]([O-])Cc3ncc(C)c(OC)c3C)nc2c1.COc1ccc2[n-]c([S+]([O-])Cc3ncc(C)c(OC)c3C)nc2c1.[Mg+2] (stereo not shown) [Experiment 1-1b, Omeprazole magnesium]
0.5 a %	0.5 area %	COc1ccc2[n-]c([S+]([O-])Cc3ncc(C)c(OC)c3C)nc2c1.COc1ccc2[n-]c([S+]([O-])Cc3ncc(C)c(OC)c3C)nc2c1.[Mg+2] (stereo not shown) [Experiment 1-1a, Omeprazole magnesium]

— patent US6596315B1, “Method of producing drug particles” (AstraZeneca AB, priority 1998, dated 2003)
